A short description of data set [1]: NIR fluorescence imaging of blood vessels and blood flow (ear, leg, blood samples) in mice. It counts as in vivo, mouse. The note with it: for fluorescent signal in blood samples: blood collected 5-120 min after IV injection. Here is the method:
Adult female nude mice (Envigo), 20 g in body mass were used in the study. Fluorescent constructs were given as a single tail vein injection in amounts of 100 μL of 40 μM in PBS. Imaging of mouse ear and leg was performed at 5, 30, 60, 90 and 120 min after construct administration. At 5, 30, 60, 90 and 120 min after construct administration 5 μL of blood was withdrawn from tail (and mixed with 5 μL of anticoagulating solution to preserve blood) while animal was under anesthesia. Mice were euthanized immediately after last imaging point (120 min). Blood collected from all animals was deposited on the glass slide, dried and imaged. Imaging was performed using Novadaq clinical imaging instrument. Autofluorescence was established by imaging mouse with no injection of fluorescent constructs (the level of autofluorescence signal was insignificant compared to the signal after the constructs administration).

For data set [2] the following is noted: cited from earlier work.
Data set [3] deals with 4T1 murine mammary carcinoma. In words: Tumor targeting in mice bearing 4T1 tumors. Format: in vivo, mouse. The following applies: 20 μM, IV, 16 h. The protocol:
Adult female nude mice and female BALB/cAnNHsd mice (Envigo), 20-25 g in body mass were used in the study. Mouse mammary cancer 4T1 cells were subcutaneously implanted in the right flank (8×10^5 cells/0.1 mL/flank) of adult female BALB/cAnNHsd mice. Rat bladder cancer AY27 cells were subcutaneously implanted in the right flank (8×10^5 cells/0.1 mL/flank) of adult female nude mice. When tumors reached approximately 5-6 mm in diameter, single tail vein injection or single intraperitoneal injection of fluorophore-pHLIP® solutions in PBS were performed. Fluorescent constructs were used in amounts of 100 μL of 40 μM, or 100 μL of 20 μM, or 100 μL of 10 μM, or 100 μL of 5 μM. Imaging of mouse was performed at 16 hours after constructs administration. Skin was removed from the tumor site just before imaging while animal was under gas anesthesia, and mice were euthanized immediately after imaging. Tumor, kidney and liver were harvested, imaged and used for histopathological analysis. Imaging was performed using Stryker clinical imaging instrument. Autofluorescence was established by imaging mouse with no injection of fluorescent constructs (the level of autofluorescence signal was insignificant compared to the signal after the constructs administration).

Data set [4] relates to urothelial carcinoma in human bladder specimens. The experiment in a line: Ex vivo NIR fluorescence imaging of radical cystectomy bladder specimens, 60 min instillation. The protocol: 22 urothelial carcinoma patients that were scheduled for radical cystectomy were selected over a twelve month period. After radical cystectomy, bladder specimens were immediately removed and irrigated 3 times for 5 min via catheter with non-buffered saline and instilled and incubated with 80 ml of 8 μM or 32.8 μg/ml (unless otherwise is stated, see notes to Table 8) of ICG-Var3 construct or ICG-Cys in PBS pH 7.4 containing 10 mM D-glucose for 60 minutes. Then, the unbound constructs were removed by rinsing with 80 ml of saline solution 3-5 times, the bladder was irrigated thoroughly with buffered saline and opened using a Y incision on the anterior wall. Using a da Vinci Si near-infrared fluorescence imaging system (Firefly^R), ex vivo fluorescent and white light imaging of the entire bladder and its parts was performed. The fluorescent spots were marked and standard pathological analysis was carried out to explore the correlation between appearance of fluorescent signal and cancer lesions.
The specimen was sectioned and submitted after 24 hour fixation in 10% phosphate-buffered formalin according to the standard institutional grossing manual, with emphasis on the marked areas of the bladder. The sections were processed for routine histology into paraffin-embedded blocks. […]
Statistical parameters were calculated according to the following equations: […]

The conditions of data set [5]: cited from earlier work. The source holds these as a separate data set.
The conditions of data set [6]: free ICG as used now; cited from earlier work.
The conditions of data set [7]: humans, high dose of 5 mg/kg of body weight; cited from earlier work.

Where a SMILES comes first, the peptide text is derived from it. Where no end group is shown, it is not given here. The star is where a group is joined. X2 = CC1(C)C(/C=C/C2=C(Oc3ccc(S(=O)(=O)O)cc3)C(=C/C=C3/N(CCCCCC(=O)NCCN4C(=O)CC(*)C4=O)c4ccc(S(=O)(=O)O)cc4C3(C)C)/CCC2)=[N+](CCCCS(=O)(=O)O)c2ccc(S(=O)(=O)[O-])cc21; X1 = CC1(C)C(/C=C/C=C/C=C/C=C2/N(CCCCCC(=O)NCCN3C(=O)CC(*)C3=O)c3ccc4ccccc4c3C2(C)C)=[N+](CCCCS(=O)(=O)[O-])c2ccc3ccccc3c21; ICG maleimide = indocyanine green maleimide

Regarding `CC[C@H](C)[C@H](NC(=O)[C@@H]1CCCN1C(=O)[C@H](CC(N)=O)NC(=O)[C@H](CCC(N)=O)NC(=O)[C@H](CCC(=O)O)NC(=O)[C@H](CSC1CC(=O)N(CCNC(=O)CCCCCN2/C(=C/C=C/C=C/C=C/C3=[N+](CCCCS(=O)(=O)[O-])c4ccc5ccccc5c4C3(C)C)C(C)(C)c3c2ccc2ccccc32)C1=O)NC(=O)[C@H](C)N)C(=O)N[C@@H](Cc1ccc(O)cc1)C(=O)N[C@@H](Cc1c[nH]c2ccccc12)C(=O)N[C@@H](C)C(=O)N[C@@H](CCCNC(=N)N)C(=O)N[C@@H](Cc1ccc(O)cc1)C(=O)N[C@@H](C)C(=O)N[C@@H](CC(=O)O)C(=O)N[C@@H](Cc1c[nH]c2ccccc12)C(=O)N[C@@H](CC(C)C)C(=O)N[C@@H](Cc1ccccc1)C(=O)N[C@H](C(=O)N[C@H](C(=O)N1CCC[C@H]1C(=O)N[C@@H](CC(C)C)C(=O)N[C@@H](CC(C)C)C(=O)N[C@@H](CC(C)C)C(=O)N[C@@H](CC(C)C)C(=O)N[C@@H](CC(=O)O)C(=O)N[C@@H](CC(C)C)C(=O)N[C@@H](C)C(=O)N[C@@H](CC(C)C)C(=O)N[C@@H](CC(C)C)C(=O)N[C@H](C(=O)N[C@@H](CC(=O)O)C(=O)N[C@@H](C)C(=O)N[C@@H](CC(=O)O)C(=O)N[C@@H](CCC(=O)O)C(=O)NCC(=O)N[C@H](C(=O)O)[C@@H](C)O)C(C)C)[C@@H](C)O)[C@@H](C)O` (stereo partly drawn) [ICG-WT pHLIP®], the “fluorescent signal in blood samples” value in data set [1] is on record as “persistence of strong fluorescent signal within 2 hours”.
`C#CCNC(=O)CCCCC[N+]1=C(/C=C/C=C/C=C/C=C2\N(CCCCS(=O)(=O)[O-])c3ccc4ccccc4c3C2(C)C)C(C)(C)c2c1ccc1ccccc21` [ICG-alkyne]: the Solubility entry in data set [2] is on record as “DMSO, DMF, Acetonitrile, Methanol”.
For the compound `CC(C)C[C@H](NC(=O)[C@H](Cc1ccc(O)cc1)NC(=O)[C@H](C)NC(=O)[C@H](CCCNC(=N)N)NC(=O)[C@H](Cc1c[nH]c2ccccc12)NC(=O)[C@@H]1CCCN1C(=O)[C@H](CC(N)=O)NC(=O)[C@H](CCC(N)=O)NC(=O)[C@H](CC(=O)O)NC(=O)[C@H](CC(=O)O)NC(=O)[C@H](CSC1CC(=O)N(CCNC(=O)CCCCCN2/C(=C/C=C/C=C/C=C/C3=[N+](CCCCS(=O)(=O)[O-])c4ccc5ccccc5c4C3(C)C)C(C)(C)c3c2ccc2ccccc32)C1=O)NC(=O)[C@H](C)N)C(=O)N[C@@H](CC(=O)O)C(=O)N[C@@H](CC(C)C)C(=O)N[C@@H](CC(C)C)C(=O)N[C@@H](Cc1ccccc1)C(=O)N1CCC[C@H]1C(=O)N[C@H](C(=O)N[C@@H](CC(=O)O)C(=O)N[C@H](C(=O)N[C@@H](CC(C)C)C(=O)N[C@@H](CC(C)C)C(=O)N[C@@H](CC(C)C)C(=O)N[C@@H](CC(=O)O)C(=O)N[C@@H](CC(C)C)C(=O)N[C@@H](CC(C)C)C(=O)N[C@@H](Cc1c[nH]c2ccccc12)C(=O)N[C@@H](C)C(=O)O)[C@@H](C)O)[C@@H](C)O` (stereo partly drawn) [ICG-Var3] (H-AC(X1)DDQNPWRAYLDLLFPTDTLLLDLLWA-OH), the organ of clearance entry in data set [3] is reported as “cleared by the liver”. In addition, the “fluorescent signal in blood samples” value in data set [1] is “persistence of strong fluorescent signal within 2 hours”. Moreover, the “adverse morphological findings in specimens after incubation” value in data set [4] is “did not show any adverse morphological findings”.
For the compound “ICG-Hum pHLIP®: ICG maleimide conjugated to Cys of Hum pHLIP® GCDNNEGFFATLGGEIPLWSDVVLAIEG (SEQ ID NO: 446) (GC(ICG maleimide)DNNEGFFATLGGEIPLWSDVVLAIEG)”, the “imaging of blood vessels in ear and leg” value in data set [1] (IV 100 μL of 40 μM, 5, 30, 60, 90, 120 min) was “slow in reaching the best imagibility condition and was fast in decaying”.
Take `CC1(C)C(/C=C/C=C/C=C/C=C2\N(CCCCS(=O)(=O)[O-])c3ccc4ccccc4c3C2(C)C)=[N+](CCCCS(=O)(=O)[O-])c2ccc3ccccc3c21.[Na+]` [ICG, indocyanine green]: in data set [5] (after intravenous injection), the “time of appearance unconjugated in the bile” value is given as “about 8 min”. Further, the half-life time in data set [5] (following intravenous injection) was 2.5 min. Further, the “time to reach the nearest draining lymph node” value in data set [5] (injected outside blood vessels) is no more than 15 min. The imaging time in data set [6] was 2 to 5 min. Moreover, the toxic effects entry in data set [7] is on record as “No significant toxic effects”.
Regarding `CC(C)C[C@H](NC(=O)[C@H](Cc1ccc(O)cc1)NC(=O)[C@H](C)NC(=O)[C@H](CCCNC(=N)N)NC(=O)[C@H](Cc1c[nH]c2ccccc12)NC(=O)[C@@H]1CCCN1C(=O)[C@H](CC(N)=O)NC(=O)[C@H](CCC(N)=O)NC(=O)[C@H](CC(=O)O)NC(=O)[C@H](CC(=O)O)NC(=O)[C@H](CSC1CC(=O)N(CCNC(=O)CCCCCN2/C(=C/C=C3\CCCC(/C=C/C4=[N+](CCCCS(=O)(=O)O)c5ccc(S(=O)(=O)[O-])cc5C4(C)C)=C3Oc3ccc(S(=O)(=O)O)cc3)C(C)(C)c3cc(S(=O)(=O)O)ccc32)C1=O)NC(=O)[C@H](C)N)C(=O)N[C@@H](CC(=O)O)C(=O)N[C@@H](CC(C)C)C(=O)N[C@@H](CC(C)C)C(=O)N[C@@H](Cc1ccccc1)C(=O)N1CCC[C@H]1C(=O)N[C@H](C(=O)N[C@@H](CC(=O)O)C(=O)N[C@H](C(=O)N[C@@H](CC(C)C)C(=O)N[C@@H](CC(C)C)C(=O)N[C@@H](CC(C)C)C(=O)N[C@@H](CC(=O)O)C(=O)N[C@@H](CC(C)C)C(=O)N[C@@H](CC(C)C)C(=O)N[C@@H](Cc1c[nH]c2ccccc12)C(=O)N[C@@H](C)C(=O)O)[C@@H](C)O)[C@@H](C)O` (stereo partly drawn) [IR800-Var3] (H-AC(X2)DDQNPWRAYLDLLFPTDTLLLDLLWA-OH), the organ of clearance result in data set [3] is on record as “cleared by the kidney”.
